From US20200331950A1, “SGLTS INHIBITOR AND APPLICATION THEREOF” (SHANDONG DANHONG PHARMACEUTICAL CO., LTD., priority 2018, published 2020)
Marks after values point to notes of the source that are not given here.

Columns and labels:
SD rats [1] = test: Oral glucose tolerance test (OGTT) in rats, first time; type: in vivo; conditions: first study, male SD rats, 10 mg/kg single intragastric administration; for OGTT blood glucose level AUC0-2 hr: glucose 2 g/kg; for Urine glucose level / Urine volume: urine 0-24 h
Procedure: Experimental Example 3. Study on In Vivo Efficacy of Oral Glucose Tolerance Test (OGTT) in Rats: Study on the In Vivo Efficacy of Oral Glucose Tolerance Test (OGTT) in Rats for the First Time
(§1) The experimental animals were allowed to adapt to the environment in the animal room for one week after they arrived.
(§2) The animals fasted in the metabolic cage for 18 hours, then were given drugs or vehicle (2 ml/kg) according to the above table, and subsequently were immediately given 50% glucose solution (2 g/kg, 4 ml/kg).
(§3) 2 hours after the administration of glucose solution, feed intake was restored. Blood samples were taken at 0 min, 15 min, 30 min, 45 min, 60 min and 120 min respectively, and urine samples were collected at 0-24 h to test blood glucose, urine glucose (mg/200 g) and urine volume respectively.
(§4) All values are represented as averages. Statistical analysis was performed using Graphpad Prism 6 one-way analysis of variance and Tukey's multiple comparison test. P value of less than 0.05 is considered statistically significant.

[2] = In vivo pharmacokinetics in Beagle dogs; conditions: male Beagle dogs
Source text: Study on the In Vivo Pharmacokinetics in Beagle Dogs
The purpose of the experiment: Male beagle (Beagle) dogs were used as test animals and were given a single administration to determine the plasma concentration of the compound and evaluate the pharmacokinetic behavior.
Experimental method: Six male Beagle dogs were divided into 2 groups, with 3 dogs in an intravenous injection group and 3 dogs in an oral administration group. In the intravenous injection group, the test compound was mixed with an appropriate amount of vehicle (20% polyethylene glycol-400 (PEG400)/10% polyethylene glycol-15 hydroxy stearate (available from solutol)/70% water), then vortexed and sonicated to prepare 1 mg/mL clear solution, which was filtered by microporous membrane. In the oral administration group, 20% polyethylene glycol-400 (PEG400)/10% polyethylene glycol-15 hydroxy stearate (available from solutol)/70% water was used as a vehicle and mixed with the test compound, then vortexed and sonicated to prepare 1 mg/mL clear solution. The dogs were given intravenous administration at a dose of 1 mg/kg or oral administration at a dose of 2 mg/kg. Whole blood was collected at a certain period of time to prepare the plasma. The drug concentration of the plasma was analyzed by LC-MS/MS method, and the pharmacokinetic parameters were calculated using Phoenix WinNonlin software (Pharsight Company, USA).

SD rats [3] = test: Oral glucose tolerance test (OGTT) in rats, second time; type: in vivo; conditions: second study, male SD rats, 10 mg/kg single intragastric administration
Procedure: Study on the In Vivo Efficacy of Oral Glucose Tolerance Test (OGTT) in Rats for the Second Time:
as §1, §2, §3, §4

Row | Compound | OGTT blood glucose level AUC0-2 hr (SD rats [1]) [mmol/L/min] | Urine glucose level (SD rats [1]) | Urine volume (SD rats [1]) | clearance ([2]; dog, plasma, intravenous 1 mg/kg or oral 2 mg/kg, read-out: Cl (clearance rate)) [mL/min/kg] | half-life ([2]; dog, plasma, intravenous 1 mg/kg or oral 2 mg/kg, read-out: T1/2 (half-life) (converted)) [h] | Vd ([2]; dog, plasma, intravenous 1 mg/kg or oral 2 mg/kg, read-out: Vdss (distribution volume)) [L/kg] | bioavailability ([2]; dog, plasma, intravenous 1 mg/kg, oral 2 mg/kg, read-out: F % (oral bioavailability)) [%] | Cmax ([2]; dog, single administration, intravenous 1 mg/kg or oral 2 mg/kg, plasma) [nM] | Oral DNAUC (AUCPO/Dose) ([2]; oral 2 mg/kg) [nM · h/mpk] | OGTT blood glucose level AUC0-2 hr (SD rats [3]; glucose 2 g/kg) [mmol/L/min] | Urine glucose level (SD rats [3]; urine 0-24 h) | Urine volume (SD rats [3]; urine 0-24 h)
1 | CS[C@H]1OC(c2ccc(Cl)c(Cc3ccc(C4=CCC(F)(F)CC4)cc3)c2)[C@H](O)[C@@H](O)[C@@H]1O (stereo partly drawn) [WXD001] | 832 | 2181.4**** mg/200 g, BW | 37.58**** mL/200 gBW |  |  |  |  |  |  |  |  | 
2 | CS[C@H]1O[C@@H](c2ccc(C)c(Cc3ccc(C4=CCC(F)(F)CC4)cc3)c2)[C@H](O)[C@@H](O)[C@@H]1O [WXD003] | 797 | 1636.4**** mg/200 g, BW | 24.58 mL/200 gBW |  |  |  |  |  |  |  |  | 
3 | CCc1ccc([C@@H]2O[C@H](SC)[C@@H](O)[C@H](O)[C@H]2O)cc1Cc1ccc(C2=CCC(F)(F)CC2)cc1 [WXD010] |  |  |  | 6.9 | 2.4 | 1.49 | 82 | 1290 | 4051 | 720 | 2118.7**** mg/200 g, BW | 20.0**** mL/200 g, BW
